# Reference: US7772263B2, “Compounds for the treatment of inflammatory disorders” (Schering Corporation, priority 2006, dated 2010)
# Target: T1, purified catalytic domain of recombinant human TACE (rhTACEc) (Homo sapiens, UniProt P78536, N452Q/S266A)
# T1 construct: rhTACEc, Residue 215 to 477 with two mutation (S266A and N4520) and a 6×His tail; 6xHis (C); made in house; host or cells: baculovirus/Hi5 insect cells
# Test: TACE kinetic assay, cleavage of internally quenched fluorescent peptide substrate SPDL-3
# Format: biochemical
# Details: Ki (nM), TACE inhibitory activity, rhTACEc 70 pM, 30 μM SPDL-3, 90 min pre-incubation at 25° C.
# T1 sequence (P78536 215-477 S266A/N452Q limits assumed): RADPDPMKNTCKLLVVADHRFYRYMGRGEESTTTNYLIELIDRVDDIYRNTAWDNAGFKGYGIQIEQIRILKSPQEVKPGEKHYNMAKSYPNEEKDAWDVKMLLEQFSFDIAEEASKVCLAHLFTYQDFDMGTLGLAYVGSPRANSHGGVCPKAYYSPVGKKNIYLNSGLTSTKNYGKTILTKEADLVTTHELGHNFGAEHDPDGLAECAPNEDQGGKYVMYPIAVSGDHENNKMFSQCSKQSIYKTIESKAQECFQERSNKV
row,Compound,Ki
1,COc1ccc2c(c1)C(=O)N(C[C@@]1(C#Cc3ccccc3F)NC(=O)NC1=O)C2 [Compound 516],0.13 nM

# Same assay, conditions: TACE inhibition, Table 1001; read-out: Ki Rating
row,Compound,Ki
1,COc1ccc2c(c1)C(=O)N(C[C@@]1(C#Cc3cccs3)NC(=O)NC1=O)C2 [Compound 463],< 5 nM
2,COc1ccc2c(c1)C(=O)N(C[C@@]1(C#Cc3ccsc3)NC(=O)NC1=O)C2 [Compound 464],< 5 nM
3,COc1ccc2c(c1)C(=O)N(C[C@@]1(C#Cc3csc(C(C)C)n3)NC(=O)NC1=O)C2 [Compound 465],< 5 nM
4,COc1ccc2c(c1)C(=O)N(C[C@@]1(C#Cc3c(F)ccc(F)c3F)NC(=O)NC1=O)C2 [Compound 466],< 5 nM
5,COc1ccc2c(c1)C(=O)N(C[C@@]1(C#Cc3csc(C)n3)NC(=O)NC1=O)C2 [Compound 467],< 5 nM
6,COc1ccc2c(c1)C(=O)N(C[C@@]1(C#Cc3ncccn3)NC(=O)NC1=O)C2 [Compound 468],< 5 nM
7,COc1ccc2c(c1)C(=O)N(C[C@@]1(C#Cc3cnccn3)NC(=O)NC1=O)C2 [Compound 469],< 5 nM
8,COc1ccc2c(c1)C(=O)N(C[C@@]1(C#Cc3ncnc4ccccc34)NC(=O)NC1=O)C2 [Compound 470],< 5 nM
9,COc1ccc2c(c1)C(=O)N(C[C@@]1(C#Cc3cnc(C)s3)NC(=O)NC1=O)C2 [Compound 471],< 5 nM
10,COc1ccc2c(c1)C(=O)N(C[C@@]1(C#Cc3ccc(C4CC4)nc3)NC(=O)NC1=O)C2 [Compound 472],< 5 nM
11,COc1ccc2c(c1)C(=O)N(C[C@@]1(C#Cc3cncc(C4(N)CC4)c3)NC(=O)NC1=O)C2 [Compound 480],< 5 nM
12,COc1ccc2c(c1)C(=O)N(C[C@@]1(C#Cc3cncc(C#N)c3)NC(=O)NC1=O)C2 [Compound 481],< 5 nM
13,COc1ccc2c(c1)C(=O)N(C[C@@]1(C#Cc3cncc(-n4cccn4)c3)NC(=O)NC1=O)C2 [Compound 482B],< 5 nM
14,COc1ccc2c(c1)C(=O)N(C[C@@]1(C#Cc3cncc(-n4ccnc4C)c3)NC(=O)NC1=O)C2 [Compound 482C],< 5 nM
15,COc1ccc2c(c1)C(=O)N(C[C@@]1(C#Cc3cncc(N4CCOCC4)c3)NC(=O)NC1=O)C2 [Compound 482],< 5 nM
16,COc1ccc2c(c1)C(=O)N(C[C@@]1(C#Cc3ccc(F)c(F)c3)NC(=O)NC1=O)C2 [Compound 483],< 5 nM
17,COc1ccc2c(c1)C(=O)N(C[C@@]1(C#Cc3ccc(OC(F)(F)F)cc3)NC(=O)NC1=O)C2 [Compound 484],< 5 nM
18,COc1ccc2c(c1)C(=O)N(C[C@@]1(C#Cc3ccc(Cl)cc3)NC(=O)NC1=O)C2 [Compound 485],< 5 nM
19,COc1ccc2c(c1)C(=O)N(C[C@@]1(C#Cc3ccc(C(F)(F)F)cc3)NC(=O)NC1=O)C2 [Compound 486],< 5 nM
20,COc1ccc2c(c1)C(=O)N(C[C@@]1(C#Cc3cnn(C)c3)NC(=O)NC1=O)C2 [Compound 487],< 5 nM
21,COc1ccc2c(c1)C(=O)N(C[C@@]1(C#Cc3cccc(Cl)c3F)NC(=O)NC1=O)C2 [Compound 488],< 5 nM
22,COc1ccc2c(c1)C(=O)N(C[C@@]1(C#Cc3cccc(F)c3F)NC(=O)NC1=O)C2 [Compound 489],< 5 nM
23,COc1ccc2c(c1)C(=O)N(C[C@@]1(C#Cc3ccc(F)cc3F)NC(=O)NC1=O)C2 [Compound 490],< 5 nM
24,COc1ccc2c(c1)C(=O)N(C[C@@]1(C#Cc3c(F)cccc3F)NC(=O)NC1=O)C2 [Compound 491],< 5 nM

row,Compound,Ki
1,COc1ccc2c(c1)C(=O)N(C[C@@]1(C#Cc3c(F)cc(F)cc3F)NC(=O)NC1=O)C2 [Compound 492],< 5 nM
2,COc1ccc2c(c1)C(=O)N(C[C@@]1(C#Cc3cccc(F)c3Cl)NC(=O)NC1=O)C2 [Compound 493],< 5 nM
3,COc1ccc2c(c1)C(=O)N(C[C@@]1(C#Cc3ccc4nc(N)sc4c3)NC(=O)NC1=O)C2 [Compound 494],< 5 nM
4,COc1ccc2c(c1)C(=O)N(C[C@@]1(C#Cc3ccc4sc(C)nc4c3)NC(=O)NC1=O)C2 [Compound 495],< 5 nM
5,COc1ccc2c(c1)C(=O)N(C[C@@]1(C#Cc3ccc(C)nc3C)NC(=O)NC1=O)C2 [Compound 496],< 5 nM
6,COc1ccc2c(c1)C(=O)N(C[C@@]1(C#Cc3cc(C)ccc3F)NC(=O)NC1=O)C2 [Compound 497],< 5 nM
7,COc1ccc2c(c1)C(=O)N(C[C@@]1(C#Cc3cc(F)ccc3C)NC(=O)NC1=O)C2 [Compound 498],< 5 nM
8,COc1ccc2c(c1)C(=O)N(C[C@@]1(C#Cc3ccc(Cl)cc3F)NC(=O)NC1=O)C2 [Compound 499],< 5 nM
9,COc1ccc2c(c1)C(=O)N(C[C@@]1(C#Cc3ccc(C)cc3F)NC(=O)NC1=O)C2 [Compound 500],< 5 nM
10,COc1ccc2c(c1)C(=O)N(C[C@@]1(C#Cc3cccc4nc(N)sc34)NC(=O)NC1=O)C2 [Compound 503],< 5 nM
11,COc1ccc2c(c1)C(=O)N(C[C@@]1(C#Cc3ccc4nc(NC5CC5)sc4c3)NC(=O)NC1=O)C2 [Compound 504],< 5 nM
12,COc1ccc2c(c1)C(=O)N(C[C@@]1(C#Cc3ccc4sc(N)nc4c3)NC(=O)NC1=O)C2 [Compound 505],< 5 nM
13,COc1cncc(C#C[C@]2(CN3Cc4ccc(OC)cc4C3=O)NC(=O)NC2=O)c1 [Compound 506],< 5 nM
14,CNc1nc2cccc(C#C[C@]3(CN4Cc5ccc(OC)cc5C4=O)NC(=O)NC3=O)c2s1 [Compound 507],< 5 nM
15,CNc1nc2cc(C#C[C@]3(CN4Cc5ccc(OC)cc5C4=O)NC(=O)NC3=O)ccc2s1 [Compound 508],< 5 nM
16,COc1ccc2c(c1)C(=O)N(C[C@@]1(C#Cc3ccc4nc(C)sc4c3)NC(=O)NC1=O)C2 [Compound 509],< 5 nM
17,COc1ccc2c(c1)C(=O)N(C[C@@]1(C#Cc3ccc(F)c(Cl)c3)NC(=O)NC1=O)C2 [Compound 510],< 5 nM
18,COc1ccc2c(c1)C(=O)N(C[C@@]1(C#Cc3ccc(C)s3)NC(=O)NC1=O)C2 [Compound 513],< 5 nM
19,COc1ccc2c(c1)C(=O)N(C[C@@]1(C#Cc3ccccc3C(F)(F)F)NC(=O)NC1=O)C2 [Compound 514],< 5 nM
20,COc1ccc2c(c1)C(=O)N(C[C@@]1(C#Cc3ccccc3OC(F)(F)F)NC(=O)NC1=O)C2 [Compound 515],< 5 nM
21,COc1ccc2c(c1)C(=O)N(C[C@@]1(C#Cc3ccccc3F)NC(=O)NC1=O)C2 [Compound 516],< 5 nM
22,COc1ccc2c(c1)C(=O)N(C[C@@]1(C#Cc3cc(F)ccc3Cl)NC(=O)NC1=O)C2 [Compound 517],< 5 nM
23,COc1ccc2c(c1)C(=O)N(C[C@@]1(C#Cc3cc(Cl)ccc3F)NC(=O)NC1=O)C2 [Compound 518],< 5 nM
24,COc1ccc2c(c1)C(=O)N(C[C@@]1(C#Cc3ccc(C(F)(F)F)nc3)NC(=O)NC1=O)C2 [Compound 519],< 5 nM

row,Compound,Ki
1,COc1ccc2c(c1)C(=O)N(C[C@@]1(C#Cc3sc4ccc(Cl)cc4c3C)NC(=O)NC1=O)C2 [Compound 520],< 5 nM
2,COc1ccc2c(c1)C(=O)N(C[C@@]1(C#Cc3cc(F)ccc3F)NC(=O)NC1=O)C2 [Compound 521],< 5 nM
3,COc1ccc2c(c1)C(=O)N(C[C@@]1(C#Cc3ccc(S(N)(=O)=O)s3)NC(=O)NC1=O)C2 [Compound 522],< 5 nM
4,COc1ccc2c(c1)C(=O)N(C[C@@]1(C#Cc3ccc(C)nn3)NC(=O)NC1=O)C2 [Compound 523],< 5 nM
5,COc1ccc2c(c1)C(=O)N(C[C@@]1(C#Cc3cc(C)c4c(cnn4C)c3)NC(=O)NC1=O)C2 [Compound 524],< 5 nM
6,COc1ccc2c(c1)C(=O)N(C[C@@]1(C#Cc3ccc4nc(C(F)(F)F)n(C)c4c3)NC(=O)NC1=O)C2 [Compound 525],< 5 nM
7,COc1ccc2c(c1)C(=O)N(C[C@@]1(C#Cc3ccc4sccc4c3)NC(=O)NC1=O)C2 [Compound 526],< 5 nM
8,COc1ccc2c(c1)C(=O)N(C[C@@]1(C#Cc3cc(C)c4nn(C)cc4c3)NC(=O)NC1=O)C2 [Compound 527],< 5 nM
9,COc1ccc2c(c1)C(=O)N(C[C@@]1(C#Cc3csc(C(F)F)c3)NC(=O)NC1=O)C2 [Compound 528],< 5 nM
10,COc1ccc2c(c1)C(=O)N(C[C@@]1(C#Cc3ccc(C(F)(F)F)s3)NC(=O)NC1=O)C2 [Compound 529],< 5 nM
11,COc1ccc2c(c1)C(=O)N(C[C@@]1(C#Cc3ccc(C(F)(F)F)cc3F)NC(=O)NC1=O)C2 [Compound 530],< 5 nM
12,COc1ccc2c(c1)C(=O)N(C[C@@]1(C#Cc3ccc(S(C)(=O)=O)s3)NC(=O)NC1=O)C2 [Compound 531],< 5 nM
13,COc1ccc2c(c1)C(=O)N(C[C@@]1(C#Cc3csc4ccccc34)NC(=O)NC1=O)C2 [Compound 532],< 5 nM
14,COc1ccc2c(c1)C(=O)N(C[C@@]1(C#Cc3csc(C)c3)NC(=O)NC1=O)C2 [Compound 533],< 5 nM
15,COc1ccc2c(c1)C(=O)N(C[C@@]1(C#Cc3cccc(=O)[nH]3)NC(=O)NC1=O)C2 [Compound 535],< 5 nM
16,COc1ccc2c(c1)C(=O)N(C[C@@]1(C#Cc3ccc(=O)[nH]c3)NC(=O)NC1=O)C2 [Compound 536],< 5 nM
17,COc1ccc2c(c1)C(=O)N(C[C@@]1(C#Cc3ccsc3C(N)=O)NC(=O)NC1=O)C2 [Compound 537],< 5 nM
18,COc1ccc2c(c1)C(=O)N(C[C@@]1(C#Cc3ccc(C(N)=O)s3)NC(=O)NC1=O)C2 [Compound 538],< 5 nM
19,COc1ccc2c(c1)C(=O)N(C[C@@]1(C#Cc3ccc[n+]([O-])c3)NC(=O)NC1=O)C2 [Compound 539],< 5 nM
20,COc1ccc2c(c1)C(=O)N(C[C@@]1(C#Cc3cccn(C)c3=O)NC(=O)NC1=O)C2 [Compound 540],< 5 nM
21,COc1ccc2c(c1)C(=O)N(C[C@@]1(C#Cc3cncc(N)c3)NC(=O)NC1=O)C2 [Compound 554],< 5 nM
22,COc1ccc2c(c1)C(=O)N(C[C@@]1(C#Cc3cnc(O)cc3C)NC(=O)NC1=O)C2 [Compound 555],< 5 nM
23,COc1ccc2c(c1)C(=O)N(C[C@@]1(C#Cc3cn[nH]c3)NC(=O)NC1=O)C2 [Compound 900],< 5 nM

# Same assay, conditions: rhTACEc 70 pM, 30 μM SPDL-3, 90 min pre-incubation at 25° C.; read-out: Ki (nM), TACE inhibitory activity
row,Compound,Ki
1,COc1ccc2c(c1)C(=O)N(C[C@@]1(C#Cc3ccc(F)cc3F)NC(=O)NC1=O)C2 [Compound 490],0.23 nM
2,COc1ccc2c(c1)C(=O)N(C[C@@]1(C#Cc3cncc(N)c3)NC(=O)NC1=O)C2 [Compound 554],0.31 nM
